The results in this text go back to ChEMBL document CHEMBL5223171, “Synthesis and discovery of Baylis-Hillman adducts as potent and selective thioredoxin reductase inhibitors for cancer treatment” (Bioorg Med Chem, 2023).

Assay [1] relates to HepG2. The assay is described as follows: Inhibition of TrxR in human HepG2 cells at 2.5 to 10 uM incubated for 48 hrs by NBL-SS probe based assay. As to conditions: dose 2.5-10 µM. In kind it is cell-based.
Assay [2] concerns HepG2. The assay is described as follows: Inhibition of TrxR in human HepG2 cells at 2.5 to 10 uM incubated for 52 hrs by TRFS-green staining based fluorescence microscopic analysis. It is filed as cell-based. The following applies: dose 2.5-10 µM.
Another assay deals with Thioredoxin reductase (Escherichia coli (strain K12), UniProt P0A9P4). Briefly: Inhibition of Escherichia coil TrxR incubated for 2 hrs in presence of DTT and insulin.
Sequence of Thioredoxin reductase (P0A9P4 whole entry): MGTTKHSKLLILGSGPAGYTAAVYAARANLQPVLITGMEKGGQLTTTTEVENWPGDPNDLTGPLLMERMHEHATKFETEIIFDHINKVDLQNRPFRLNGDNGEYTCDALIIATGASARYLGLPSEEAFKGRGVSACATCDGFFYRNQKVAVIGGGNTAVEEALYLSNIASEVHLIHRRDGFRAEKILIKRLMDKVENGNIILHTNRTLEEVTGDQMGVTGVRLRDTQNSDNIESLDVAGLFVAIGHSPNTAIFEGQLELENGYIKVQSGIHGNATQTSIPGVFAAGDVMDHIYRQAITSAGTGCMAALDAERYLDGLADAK
The next assay concerns HeLa. Briefly: Cytotoxicity against human HeLa cells assessed as reduction in cell viability incubated for 72 hrs by MTT assay. It is filed as functional, cell-based.
The species entered for a further assay is Homo sapiens. Briefly: Inhibition of recombinant TrxR (unknown origin) using DTNB as substrate at 10 to 40 uM incubated for 2 hrs in presence of NADPH. As to conditions: dose 10-40 µM.
In assay [3] the test system is HepG2. The assay is described as follows: Inhibition of colony formation in human HepG2 cells assessed as reduction in colony number at 5 to 10 uM incubated for 5 days by crystal violet staining assay. It is filed as functional, cell-based. As to conditions: dose 5-10 µM, time 5.0 day.
Assay [4] relates to HepG2. Briefly: Induction of cell cycle arrest in human HepG2 cells assessed as accumulation at S phase at 10 uM incubated for 48 hrs by propidium iodide staining based flow cytometry (reference value: 20.55%). In kind it is functional. (In general: Flow cytometry measures light scatter and fluorescence of single cells or particles in a stream.)
The subject of assay [5] is HepG2. The assay is described as follows: Induction of ROS generation in human HepG2 cells assessed as increase in intracellular ROS level at 2.5 to 10 uM incubated for 48 hrs by DCFH-DA staining based fluorescence microscopy. The following applies: dose 2.5-10 µM. In kind it is functional, cell-based.
Assay [6] has as its system HepG2. The assay is described as follows: Induction of cell cycle arrest in human HepG2 cells assessed as accumulation at G1 phase at 10 uM incubated for 48 hrs by propidium iodide staining based flow cytometry (reference value: 64.6%). In kind it is functional.
Assay [7] in a line: Inhibition of recombinant TrxR (unknown origin) using DTNB as substrate incubated for 2 hrs in presence of NADPH. Set-up: species or system Homo sapiens.
Assay [8] has as its system HepG2. The assay is described as follows: Induction of cell cycle arrest in human HepG2 cells assessed as accumulation at G2 phase at 10 uM incubated for 48 hrs by propidium iodide staining based flow cytometry (reference value: 14.85%). It is filed as functional.
The subject of assay [9] is HepG2. Briefly: Inhibition of cell migration in human HepG2 cells at 5 to 10 uM incubated upto 48 hrs by wound healing assay. In kind it is functional, cell-based. The following applies: dose 5-10 µM.
The target in assay [10] is Thioredoxin reductase (Escherichia coli (strain K12)) (UniProt P0A9P4). Briefly: Inhibition of Escherichia coil TrxR at 10 to 40 uM incubated for 2 hrs in presence of DTT and insulin. As to conditions: dose 10-40 µM.
Sequence of Thioredoxin reductase (Escherichia coli (strain K12)) (P0A9P4 whole entry): as above
Assay [11] has as its system HepG2. Briefly: Cytotoxicity against human HepG2 cells assessed as reduction in cell viability incubated for 72 hrs by MTT assay. It is filed as functional, cell-based. As to conditions: HepG2, 72 h.
The subject of assay [12] is HepG2. Briefly: Inhibition of colony formation in human HepG2 cells at 5 uM incubated for 5 days by crystal violet staining assay. It is filed as functional. The following applies: HepG2, 120 h, time 5 day.
In the next assay the test system is A549. Briefly: Cytotoxicity against human A549 cells assessed as reduction in cell viability incubated for 72 hrs by MTT assay. It is filed as functional, cell-based. The following applies: A549, 72 h. On the technique in general: Formazan colour is commonly taken as a measure of viable cells.

A value given as a limit tells only on which side of the number the result lay.

What is called inhibition is the percentage by which the read-out fell short of the control. The IC50 is the midpoint of a concentration-inhibition curve. As to `C=C(COC(=O)Nc1ccc(C)cc1)C(=O)NC(CC(C)C)C(=O)NCC(=O)OCC` (configuration not stated), the inhibition result (in the assay on HepG2 [1]; in the assay on HepG2 [2]; in the assay filed under Homo sapiens; in the assay on HepG2 [3]; with HepG2 [9]; in [10]) was “Dose-Dependent Effect” each time. Moreover, the IC50 on Thioredoxin reductase was 16.6 µM; in the assay on HeLa, greater than 20 µM; in assay [7] it was 4.18 µM; in the assay with HepG2 [11], 4.7 µM; with A549 it was greater than 20 µM. Besides, the Activity was 17.74% in the assay with HepG2 [4], “Dose-Dependent Effect” in the assay with HepG2 [5], 72.24% with HepG2 [6] and 10.02% with HepG2 [8]. The same compound gave an inhibition at 5 µM in the assay with HepG2 [12] of 67.1%.

Take `C=C(COC(=O)Nc1ccc(C)cc1)C(=O)NC(C(=O)NCC(=O)OCC)c1ccc(Cl)cc1Cl` (configuration not stated): the IC50 in the assay with HeLa, in the assay on HepG2 [11] and in the assay with A549 was greater than 20 µM each time.

Consider `C=C(COC(=O)Nc1ccc(C)cc1)C(=O)NC(C(=O)NC(C)(C)C)c1ccc(Br)cc1` (configuration not stated), for which the IC50 in the assay on HeLa, in the assay with HepG2 [11] and in the assay on A549 was greater than 20 µM each time.

`C=C(COC(=O)Nc1ccc(C)cc1)C(=O)NC(C(=O)NC(C)(C)C)c1ccc(Cl)cc1` (configuration not stated): the IC50 with HeLa is greater than 20 µM; in the assay with HepG2 [11], 11.6 µM; in the assay on A549, greater than 20 µM.

On to `C=C(COC(=O)Nc1ccc(C)cc1)C(=O)NC(CC(C)C)C(=O)NC(C)(C)C` (configuration not stated), for which the IC50 in the assay with HeLa, in the assay with HepG2 [11] and with A549 was greater than 20 µM each time.

For `C=C(COC(=O)Nc1ccc(C)cc1)C(=O)NC(C(=O)NCC(=O)OCC)c1ccc(Cl)cc1` (configuration not stated), the IC50 in the assay with HeLa, in the assay with HepG2 [11] and in the assay on A549 was greater than 20 µM each time.

For `CCC(C)SSc1ncc[nH]1` (configuration not stated) [PX-12], the IC50 in the assay with HeLa is 9 µM; in the assay on HepG2 [11], 12 µM; with A549, greater than 20 µM.

Turning to `C=C(COC(=O)Nc1ccc(C)cc1)C(=O)NC(C(=O)NCC(=O)OCC)c1ccc(F)cc1` (configuration not stated), the IC50 in the assay with HeLa is greater than 20 µM; with HepG2 [11], 17.6 µM; in the assay on A549, greater than 20 µM.

Take `C=C(COC(=O)Nc1ccc(C)cc1)C(=O)NC(C(=O)NC(C)(C)C)c1ccc(Cl)cc1Cl` (configuration not stated): the IC50 in the assay with HeLa, in the assay on HepG2 [11] and with A549 was greater than 20 µM in each case.

With `C=C(COC(=O)Nc1ccc(C)cc1)C(=O)NC(C(=O)NCC(=O)OCC)c1ccc(Br)cc1` (configuration not stated), the IC50 is greater than 20 µM with HeLa, 18.8 µM with HepG2 [11] and greater than 20 µM in the assay with A549.

For `C=C(COC(=O)Nc1ccc(C)cc1)C(=O)NC(C(=O)NC(C)(C)C)c1ccccc1` (configuration not stated), the IC50 with HeLa, in the assay with HepG2 [11] and in the assay on A549 was greater than 20 µM in each case.

In the case of `C=C(COC(=O)Nc1ccc(C)cc1)C(=O)NC(C(=O)NCC(=O)OCC)c1ccccc1` (configuration not stated), the IC50 was greater than 20 µM in the assay with HeLa, 11.5 µM with HepG2 [11] and greater than 20 µM with A549.

As for `C=C(COC(=O)Nc1ccc(C)cc1)C(=O)NC(C(=O)NC(C)(C)C)c1ccc(F)cc1` (configuration not stated), the IC50 in the assay on HeLa, with HepG2 [11] and with A549 was greater than 20 µM each time.
